The experiment deals with P388 leukemia ip, CD2F1 mice, survival T/C. The experiment in a line: NCI In Vivo Anticancer Drug Screen. Data for tumor model P388 Leukemia (intraperitoneal) in CD2F1 (CDF1) mice. Conditions: endpoint: median survival time, higher = longer survival. An outline of the steps:
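Mice carrying the transplanted tumor received test compound or vehicle. Survival was recorded in each group, and the value is the treated-group measurement divided by that of the vehicle-treated control group.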

Setting [1] is: dose: 50.0 mg/kg/injection, schedule: Q01DX005 (ip), vehicle: Klucel (hydroxypropylcellulose) (HPC).
The mark [2] stands for this setting: dose: 100.0 mg/kg/injection, schedule: Q01DX005 (ip), vehicle: Klucel (hydroxypropylcellulose) (HPC).
Where [3] appears, read: dose: 50.0 mg/kg/injection, schedule: Q01DX009 (ip), vehicle: saline with Tween-80.
Where [4] appears, read: dose: 100.0 mg/kg/injection, schedule: Q01DX009 (ip), vehicle: saline with Tween-80.
The mark [5] stands for this setting: dose: 200.0 mg/kg/injection, schedule: Q01DX009 (ip), vehicle: saline with Tween-80.
Where [6] appears, read: dose: 50.0 mg/kg/injection, schedule: Q01DX005 (ip), vehicle: saline with Tween-80.
Where [7] appears, read: dose: 100.0 mg/kg/injection, schedule: Q01DX005 (ip), vehicle: saline with Tween-80.
Setting [8] is: dose: 200.0 mg/kg/injection, schedule: Q01DX005 (ip), vehicle: saline with Tween-80.
The mark [9] stands for this setting: dose: 25.0 mg/kg/injection, schedule: Q01DX009 (ip), vehicle: saline with Tween-80.
Setting [10] is: dose: 50.0 mg/kg/injection, schedule: Q01DX005 (ip), vehicle: saline.
Setting [11] is: dose: 100.0 mg/kg/injection, schedule: Q01DX005 (ip), vehicle: saline.
The mark [12] stands for this setting: dose: 60.0 mg/kg/injection, schedule: Q01DX005 (ip), vehicle: saline with Tween-80.
[13] abbreviates: dose: 120.0 mg/kg/injection, schedule: Q01DX005 (ip), vehicle: saline with Tween-80.
Where [14] appears, read: dose: 240.0 mg/kg/injection, schedule: Q01DX005 (ip), vehicle: saline with Tween-80.
Setting [15] is: dose: 200.0 mg/kg/injection, schedule: Q01DX005 (ip), vehicle: Klucel (hydroxypropylcellulose) (HPC).
[16] abbreviates: dose: 60.0 mg/kg/injection, schedule: Q01DX005 (ip), vehicle: Klucel (hydroxypropylcellulose) (HPC).
Setting [17] is: dose: 120.0 mg/kg/injection, schedule: Q01DX005 (ip), vehicle: Klucel (hydroxypropylcellulose) (HPC).
Where [18] appears, read: dose: 240.0 mg/kg/injection, schedule: Q01DX005 (ip), vehicle: Klucel (hydroxypropylcellulose) (HPC).

The structures appear in SMILES notation. Inconclusive results and toxic doses are left out. Square brackets hold non-standard residues; d marks the D form. Peptide text beside a SMILES is read from it. Tyr(3,5-I2) = N[CH](Cc1cc(I)c(O)c(I)c1)C(=O)O

In the case of `Nc1ncnc(N2C(=S)OC3C(O)C(CO)OC32)c1N` (centres undefined), the T/C runs as follows: (dose: 25.0 mg/kg/injection, schedule: Q04DX003 (ip), vehicle: water) 100 % of control; (dose: 50.0 mg/kg/injection, schedule: Q04DX003 (ip), vehicle: water) 95 % of control; (dose: 100.0 mg/kg/injection, schedule: Q04DX003 (ip), vehicle: water) 95 % of control; (dose: 200.0 mg/kg/injection, schedule: Q04DX003 (ip), vehicle: water) 113 % of control; (dose: 400.0 mg/kg/injection, schedule: Q04DX003 (ip), vehicle: water) 95 % of control.
Consider `CC1(C)CSCC(C)(C)C2(C=CC=CC=N2)C1=O` (centres undefined), for which the T/C is 107 % of control under setting [1] and 115 % of control under setting [2].
Regarding `FC(F)(F)c1cc(-n2c(-c3ccccc3)nc(=S)c3c2CCCC3)cc(C(F)(F)F)c1`, the T/C under setting [3] was 100 % of control, the T/C under setting [4] was 95 % of control and the T/C under setting [5] was 94 % of control.
For the compound `O=C(O)CCCC1CCCCC1.[Mn]`, the T/C by setting is: under setting [6], 116 % of control; under setting [7], 108 % of control; under setting [8], 99 % of control.
On to `O=c1c2ccccc2[nH]c2c([N+](=O)[O-])ccc(Oc3ccc(CCc4ccc(Oc5ccc([N+](=O)[O-])c6[nH]c7ccccc7c(=O)c56)cc4)cc3)c12`, for which the T/C by setting is: (dose: 6.25 mg/kg/injection, schedule: Q01DX009 (ip), vehicle: saline with Tween-80) 101 % of control; (dose: 12.5 mg/kg/injection, schedule: Q01DX009 (ip), vehicle: saline with Tween-80) 100 % of control; under setting [9], 100 % of control; under setting [5], 91 % of control.
On to `COC1C(/C=[N+](\C)[O-])OC2OC(C)(C)OC21` (centres undefined), for which the T/C was 102 % of control under setting [10]; 100 % of control under setting [11]; 93 % of control (dose: 200.0 mg/kg/injection, schedule: Q01DX005 (ip), vehicle: saline).
In the case of `CCOC(=O)C(N)CSC` (centres undefined), the T/C runs as follows: (dose: 50.0 mg/kg/injection, schedule: Q01DX009 (ip), vehicle: water) 97 % of control; (dose: 200.0 mg/kg/injection, schedule: Q01DX009 (ip), vehicle: water) 103 % of control; (dose: 400.0 mg/kg/injection, schedule: Q01DX009 (ip), vehicle: water) 106 % of control.
Consider `CC(=O)Nc1ccc(S(=O)(=O)Nc2ccc(O)c3ccccc23)cc1`, for which the T/C by setting is: (dose: 50.0 mg/kg/injection, schedule: Q04DX003 (ip), vehicle: saline with Tween-80) 88 % of control; (dose: 100.0 mg/kg/injection, schedule: Q04DX003 (ip), vehicle: saline with Tween-80) 90 % of control; (dose: 200.0 mg/kg/injection, schedule: Q04DX003 (ip), vehicle: saline with Tween-80) 100 % of control; (dose: 400.0 mg/kg/injection, schedule: Q04DX003 (ip), vehicle: saline with Tween-80) 117 % of control.
For `O=C1OC2CCCC2C12C(=O)O[C@@H]1CCC[C@@H]12` (mixture of isomers), the T/C was 97 % of control under setting [12], 99 % of control under setting [13] and 99 % of control under setting [14].
In the case of `CCCNc1nc(C)nc2[nH]c(Cc3ccccc3)c(C)c12`, the T/C is 97 % of control under setting [1], 100 % of control under setting [2] and 100 % of control under setting [15].
Take `CCOC(=O)c1[nH]c(=O)[nH]c(=O)c1I`: the T/C runs as follows: (dose: 12.5 mg/kg/injection, schedule: Q01DX009 (ip), vehicle: distilled water + Tween-80) 97 % of control; (dose: 25.0 mg/kg/injection, schedule: Q01DX009 (ip), vehicle: distilled water + Tween-80) 105 % of control; (dose: 50.0 mg/kg/injection, schedule: Q01DX009 (ip), vehicle: distilled water + Tween-80) 106 % of control; (dose: 100.0 mg/kg/injection, schedule: Q01DX009 (ip), vehicle: distilled water + Tween-80) 105 % of control; (dose: 200.0 mg/kg/injection, schedule: Q01DX009 (ip), vehicle: distilled water + Tween-80) 105 % of control.
Take `Cc1ccc2[nH]c3c(c2c1)-c1ncncc1CC3`: the T/C is 104 % of control (dose: 100.0 mg/kg/injection, schedule: Q04DX002 (ip), vehicle: Klucel (hydroxypropylcellulose) (HPC)) and 92 % of control (dose: 200.0 mg/kg/injection, schedule: Q04DX002 (ip), vehicle: Klucel (hydroxypropylcellulose) (HPC)).
Take `CC(=O)NC(Cc1ccccc1)C(=O)NC(Cc1cc(I)c(O)c(I)c1)C(=O)O` (centres undefined) (Ac-Phe-[Tyr(3,5-I2)]-OH; configuration not given here): the T/C is, setting by setting: under setting [1], 93 % of control; under setting [2], 107 % of control; under setting [15], 99 % of control.
On to `COc1cc(O)c(/C=N\O)c(OC)c1`, for which the T/C by setting is: under setting [12], 96 % of control; under setting [13], 98 % of control; under setting [14], 98 % of control.
Turning to `CC1(c2ccc([N+](=O)[O-])cc2)OC(=O)C(=Cc2ccc([N+](=O)[O-])s2)C(=O)O1` (centres undefined), the T/C is 103 % of control under setting [3], 96 % of control under setting [4] and 103 % of control under setting [5].
Consider `C[N+](C)([O-])Cc1ccccc1C[N+](C)(C)[O-]`, for which the T/C is, setting by setting: (dose: 60.0 mg/kg/injection, schedule: Q01DX005 (ip), vehicle: saline) 102 % of control; (dose: 120.0 mg/kg/injection, schedule: Q01DX005 (ip), vehicle: saline) 110 % of control; (dose: 240.0 mg/kg/injection, schedule: Q01DX005 (ip), vehicle: saline) 112 % of control.
In the case of `CCCN(CCC)c1ncnc2[nH]ncc12`, the T/C was 92 % of control under setting [10] and 92 % of control under setting [11].
Take `CCOC(=O)c1c(C)noc1NC`: the T/C is 100 % of control under setting [16], 101 % of control under setting [17] and 100 % of control under setting [18].
In the case of `CC1(C)OC2OC(COC(=O)c3ccccc3)C(OS(C)(=O)=O)C2O1` (centres undefined), the T/C is 103 % of control under setting [6], 100 % of control under setting [7] and 102 % of control under setting [8].
Take `CCC1(CC)OC(=O)C1Cl` (centres undefined): the T/C is, setting by setting: under setting [6], 98 % of control; under setting [7], 113 % of control; under setting [8], 118 % of control.
With `CCOC(=O)c1ccc(NC(=O)OCc2ccco2)cc1`, the T/C is 89 % of control under setting [16], 92 % of control under setting [17] and 91 % of control under setting [18].
On to `OC(COc1cccc2ccccc12)CN(CCCl)CCCl` (centres undefined), for which the T/C by setting is: (dose: 1.25 mg/kg/injection, schedule: Q01DX009 (ip), vehicle: saline) 122 % of control; (dose: 20.0 mg/kg/injection, schedule: Q01DX009 (ip), vehicle: saline) 91 % of control.
Regarding `c1ccc(N=P(c2ccccc2)(c2ccccc2)c2ccccc2)cc1`, the T/C was 96 % of control under setting [9], 108 % of control under setting [3] and 108 % of control under setting [4].
For the compound `O=C1C=CC(O)C2OC12` (centres undefined), the T/C is, setting by setting: (dose: 5.0 mg/kg/injection, schedule: Q04DX002 (ip), vehicle: saline) 111 % of control; (dose: 10.0 mg/kg/injection, schedule: Q04DX002 (ip), vehicle: saline) 113 % of control.
Consider `Nc1ccc2nc3cc(Nc4ccccc4)c(=Nc4ccccc4)cc-3n(-c3ccccc3)c2c1`, for which the T/C by setting is: under setting [6], 100 % of control; under setting [7], 98 % of control; under setting [8], 93 % of control.
On to `CCN(CC)CCNc1ccc([N+](=O)[O-])c2sc3ccccc3c(=O)c12`, for which the T/C (dose: 6.25 mg/kg/injection, schedule: Q01DX009 (ip), vehicle: saline) is 104 % of control; the T/C (dose: 12.5 mg/kg/injection, schedule: Q01DX009 (ip), vehicle: saline) is 112 % of control; the T/C (dose: 33.0 mg/kg/injection, schedule: Q01DX009 (ip), vehicle: saline) was 180 % of control; the T/C (dose: 50.0 mg/kg/injection, schedule: Q01DX009 (ip), vehicle: saline) was 220 % of control; the T/C (dose: 75.0 mg/kg/injection, schedule: Q01DX009 (ip), vehicle: saline) was 115 % of control; the T/C under setting [4] was 158 % of control.
With `Cc1ccc(C[n+]2cc3ccccc3cc2/C=N\O)cc1`, the T/C by setting is: under setting [6], 98 % of control; under setting [7], 109 % of control.

Source of the values: PubChem BioAssay AID330 (DTP/NCI, 2004).
